Data reported in patent publication US20260193238A1, “PHARMACEUTICAL COMPOUNDS AS PARP7 AND/OR PARP1 INHIBITORS” (Duke Street Bio Limited, priority 2022, published 2026).
pIC50: −log10 of the molar value.

Target: PARP1 (Homo sapiens, UniProt P09874)
Test: PARP1 biochemical DELFIA assay (auto-PARylation)
Details: Table 1A
Protocol: Prior to assay, wells were washed 3×5 min in coating wash buffer.
% data was fitted to a non-linear regression equation (log inhibitor vs response-variable slope 4-parameters) to obtain IC50 values.

PARP1, sequence (P09874 whole entry): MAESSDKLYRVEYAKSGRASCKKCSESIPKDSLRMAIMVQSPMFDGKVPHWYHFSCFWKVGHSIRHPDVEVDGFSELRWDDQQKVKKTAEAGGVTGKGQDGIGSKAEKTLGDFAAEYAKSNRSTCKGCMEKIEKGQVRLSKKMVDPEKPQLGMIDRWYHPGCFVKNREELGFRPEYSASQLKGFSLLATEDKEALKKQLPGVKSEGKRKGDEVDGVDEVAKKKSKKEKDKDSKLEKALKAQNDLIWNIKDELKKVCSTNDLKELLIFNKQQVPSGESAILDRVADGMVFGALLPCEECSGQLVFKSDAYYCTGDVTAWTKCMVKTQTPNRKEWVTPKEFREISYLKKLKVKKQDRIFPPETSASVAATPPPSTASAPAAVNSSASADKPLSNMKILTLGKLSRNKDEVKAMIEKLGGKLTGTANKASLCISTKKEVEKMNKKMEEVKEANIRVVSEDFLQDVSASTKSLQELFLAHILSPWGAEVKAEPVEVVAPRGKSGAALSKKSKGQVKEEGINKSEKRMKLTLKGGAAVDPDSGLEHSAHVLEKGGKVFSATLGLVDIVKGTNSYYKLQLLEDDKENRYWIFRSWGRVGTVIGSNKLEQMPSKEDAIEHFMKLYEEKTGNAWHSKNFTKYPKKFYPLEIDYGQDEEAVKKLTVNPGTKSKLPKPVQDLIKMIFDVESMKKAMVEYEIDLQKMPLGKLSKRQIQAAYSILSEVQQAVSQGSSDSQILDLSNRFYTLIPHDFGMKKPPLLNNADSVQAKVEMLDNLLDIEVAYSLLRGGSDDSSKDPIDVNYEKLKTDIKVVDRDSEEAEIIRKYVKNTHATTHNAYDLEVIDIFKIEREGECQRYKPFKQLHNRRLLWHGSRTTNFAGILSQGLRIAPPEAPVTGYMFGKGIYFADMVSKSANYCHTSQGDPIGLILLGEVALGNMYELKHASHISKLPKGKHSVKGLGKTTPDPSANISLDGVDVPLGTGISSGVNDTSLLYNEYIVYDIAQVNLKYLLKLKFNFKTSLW

SMILES | pIC50
CN(c1ncc(C(F)(F)F)cn1)C1CN(C(=O)CN2CCCC2c2cc(C(F)(F)F)c(=O)[nH]n2)C1 (single isomer, unassigned) [Compound 127b] | 5.00 to 6.00
O=C(CN1CCCC1c1cc(C(F)(F)F)c(=O)[nH]n1)N1CCN(c2nc3ccc(F)cn3n2)CC1 (single isomer, unassigned) [Compound 128a] | ≥ 8.00
O=C(CN1CCCC1c1cc(C(F)(F)F)c(=O)[nH]n1)N1CCN(c2nc3ccc(F)cn3n2)CC1 (single isomer, unassigned) [Compound 128b] | 5.00 to 6.00
COC1CC(c2cc(C(F)(F)F)c(=O)[nH]n2)N(CC(=O)N2CCN(c3ncc(C(F)(F)F)cn3)CC2)C1 (single isomer, unassigned) [Compound 138cis1, 6-(4-methoxy-1-(2-oxo-2-(4-(5-(trifluoromethyl)pyrimidin-2-yl)piperazin-1-yl)ethyl)pyrrolidin-2-yl)-4-(trifluoromethyl)pyridazin-3(2H)-one] | 7.00 to 8.00
COC1CC(c2cc(C(F)(F)F)c(=O)[nH]n2)N(CC(=O)N2CCN(c3ncc(C(F)(F)F)cn3)CC2)C1 (single isomer, unassigned) [Compound 138cis2, 6-(4-methoxy-1-(2-oxo-2-(4-(5-(trifluoromethyl)pyrimidin-2-yl)piperazin-1-yl)ethyl)pyrrolidin-2-yl)-4-(trifluoromethyl)pyridazin-3(2H)-one] | 5.00 to 6.00
COC1CC(c2cc(C(F)(F)F)c(=O)[nH]n2)N(CC(=O)N2CCN(c3ncc(C(F)(F)F)cn3)CC2)C1 (single isomer, unassigned) [Compound 138trans1, 6-(4-methoxy-1-(2-oxo-2-(4-(5-(trifluoromethyl)pyrimidin-2-yl)piperazin-1-yl)ethyl)pyrrolidin-2-yl)-4-(trifluoromethyl)pyridazin-3(2H)-one] | 6.00 to 7.00
COC1CC(c2cc(C(F)(F)F)c(=O)[nH]n2)N(CC(=O)N2CCN(c3ncc(C(F)(F)F)cn3)CC2)C1 (single isomer, unassigned) [Compound 138trans2, 6-(4-methoxy-1-(2-oxo-2-(4-(5-(trifluoromethyl)pyrimidin-2-yl)piperazin-1-yl)ethyl)pyrrolidin-2-yl)-4-(trifluoromethyl)pyridazin-3(2H)-one] | < 5.00
N#Cc1cc(Cl)cnc1N1CCN(C(=O)CN2CCCC2c2cc(C(F)(F)F)c(=O)[nH]n2)CC1 (single isomer, unassigned) [Compound 144a] | 7.00 to 8.00
N#Cc1ccc2nc(N3CCN(C(=O)CN4CCCC4c4cc(C#N)c(=O)[nH]n4)CC3)oc2c1 (single isomer, unassigned) [Compound 145b] | < 5.00
N#Cc1cc(F)cnc1N1CCN(C(=O)CN2CCCC2c2cc(C(F)(F)F)c(=O)[nH]n2)CC1 (single isomer, unassigned) [Compound 146a] | 6.00 to 7.00
N#Cc1cc(C2CCCN2CC(=O)N2CCN(c3nc4cc(F)ccc4o3)CC2)n[nH]c1=O (single isomer, unassigned) [Compound 149a] | 7.00 to 8.00
N#Cc1cc(C2CCCN2CC(=O)N2CCN(c3nc4cc(F)ccc4o3)CC2)n[nH]c1=O (single isomer, unassigned) [Compound 149b] | < 5.00
O=C(CN1CCCC1c1cc(C(F)(F)F)c(=O)[nH]n1)N1CCN(c2nc3cc(F)ccc3o2)CC1 (single isomer, unassigned) [Compound 150b] | 5.00 to 6.00
CNC(=O)c1ccc(N2CCN(C(=O)CCN3CCC(c4n[nH]c(=O)c5ccccc45)CC3)CC2)cn1 [Compound 48, N-methyl-5-(4-(3-(4-(4-oxo-3,4-dihydrophthalazin-1-yl)piperidin-1-yl)propanoyl)piperazin-1-yl)picolinamide] | ≥ 8.00
O=C(CCN1CCC(c2n[nH]c(=O)c3ccccc23)CC1)N1CCN(c2ncc(C(F)(F)F)cn2)CC1 [Compound 49] | 7.00 to 8.00
CNC(=O)c1ccc(N2CCN(C(=O)CN3CCC(c4n[nH]c(=O)c5ccccc45)CC3)CC2)cn1 [Compound 50] | 7.00 to 8.00
O=C(CN1CCC(c2n[nH]c(=O)c3ccccc23)CC1)N1CCN(c2ncc(C(F)(F)F)cn2)CC1 [Compound 51] | 7.00 to 8.00
CNC(=O)c1ccc(N2CCN(C(=O)CCN3CCC(c4cc(C(F)(F)F)c(=O)[nH]n4)CC3)CC2)cn1 [Compound 59] | 7.00 to 8.00
O=C(CCN1CCC(c2cc(C(F)(F)F)c(=O)[nH]n2)CC1)N1CCN(c2ncc(C(F)(F)F)cn2)CC1 [Compound 61] | 6.00 to 7.00
O=C(CN1CCC(c2cc(C(F)(F)F)c(=O)[nH]n2)CC1)N1CCN(c2ncc(C(F)(F)F)cn2)CC1 [Compound 62] | 6.00 to 7.00
CNC(=O)c1ccc(N2CCN(C(=O)CN3CCC(c4cc(C(F)(F)F)c(=O)[nH]n4)CC3)CC2)cn1 [Compound 64] | 6.00 to 7.00
O=C(CN1CC(F)(F)C[C@@H]1c1cc(C(F)(F)F)c(=O)[nH]n1)N1CCN(c2ncc(C(F)(F)F)cn2)CC1 [Compound 91a, (R)-6-(4,4-difluoro-1-(2-oxo-2-(4-(5-(trifluoromethyl)pyrimidin-2-yl)piperazin-1-yl)ethyl)pyrrolidin-2-yl)-4-(trifluoromethyl)pyridazin-3(2H)-one] | 6.00 to 7.00
O=C(CN1CC(F)(F)C[C@H]1c1cc(C(F)(F)F)c(=O)[nH]n1)N1CCN(c2ncc(C(F)(F)F)cn2)CC1 [Compound 91b, (S)-6-(4,4-difluoro-1-(2-oxo-2-(4-(5-(trifluoromethyl)pyrimidin-2-yl)piperazin-1-yl)ethyl)pyrrolidin-2-yl)-4-(trifluoromethyl)pyridazin-3(2H)-one] | 5.00 to 6.00
CC1(C)C[C@H](c2cc(C(F)(F)F)c(=O)[nH]n2)N(CC(=O)N2CCN(c3ncc(C(F)(F)F)cn3)CC2)C1 [Compound 94a] | 7.00 to 8.00
O=C(CCN1CC2(c3cc(C(F)(F)F)c(=O)[nH]n3)CC1C2)N1CCN(c2ncc(C(F)(F)F)cn2)CC1 [Compound 103] | 6.00 to 7.00

Tested on: PARP1 over PARP2
Test: not given
Details: PARP1 inhibitor and trapper; cited from earlier work

SMILES | selectivity over PARP2
CCc1cc2ncc(CN3CCN(c4ccc(C(=O)NC)nc4)CC3)cc2[nH]c1=O [AZD5305] | 500 fold
